Data reported in publication PMC11957373 (Organic & biomolecular chemistry, 2024).

Legend:
HIV-1 protease = HIV-1 protease (Human immunodeficiency virus type 1 group M subtype B, UniProt P04585); assay: HIV-1 protease inhibition, spectrofluorometric assay; type: biochemical; conditions: for Ki: HIV-1 protease
HIVLAI = assay: Cell-based antiviral assay in MT-2 human-T-lymphoid cells exposed to HIVLAI; parameters: species or system HIV-1; conditions: for antiviral activity (in words): MT-2 cells exposed to HIVLAI
[1] = at least 5 data points, standard error less than 7%

C=CCC1OC(C)CC1OC(=O)NC(Cc1ccccc1)C(O)CN(CC(C)C)S(=O)(=O)c1ccc(OC)cc1 [4a, (2S,3S,5R)-2-allyl-5-methyltetrahydrofuran-3-yl.((2S,3R)-3-hydroxy-4-((N-isobutyl-4-methoxyphenyl)sulfonamido)-1-phenylbutan-2-yl)carbamate]
Ki (HIV-1 protease; [1]): 400 pM | antiviral activity (in words) (HIVLAI): did not exhibit any appreciable antiviral activity

COC[C@@H]1O[C@H](C)C[C@@H]1OC(=O)N[C@@H](Cc1ccccc1)[C@H](O)CN(CC(C)C)S(=O)(=O)c1ccc(N)cc1 [4d, (2S,3S,5R)-2-(methoxymethyl)-5-methyltetrahydrofuran-3-yl((2S,3R)-4-((4-amino-N-isobutylphenyl)sulfonamido)-3-hydroxy-1-phenylbutan-2-yl)carbamate]
fold reduction of protease inhibitory activity over compound 4c (HIV-1 protease; relative to compound 4c): over 300 fold

COC[C@H]1O[C@@H](C)C[C@H]1OC(=O)N[C@@H](Cc1ccccc1)[C@H](O)CN(CC(C)C)S(=O)(=O)c1ccc(OC)cc1 [4e, (2R,3R,5S)-2-(methoxymethyl)-5-methyltetrahydrofuran-3-yl.((2S,3R)-3-hydroxy-4-((N-isobutyl-4-methoxyphenyl)sulfonamido)-1-phenylbutan-2-yl)carbamate]
fold reduction of protease inhibitory activity over compound 4c (HIV-1 protease; relative to compound 4c): ~4 fold

COC[C@H]1O[C@H](C)C[C@@H]1OC(=O)N[C@@H](Cc1ccccc1)[C@H](O)CN(CC(C)C)S(=O)(=O)c1ccc(OC)cc1 [4h, (2R,3S,5R)-2-(methoxymethyl)-5-methyltetrahydrofuran-3-yl((2S,3R)-3-hydroxy-4-((N-isobutyl-4-methoxyphenyl)sulfonamido)-1-phenylbutan-2-yl)carbamate]
Ki (HIV-1 protease; value printed in pM): 49 pM | fold improvement of enzyme affinity compared to compound 4c (HIV-1 protease; relative to compound 4c): over 5 fold

COc1ccc(S(=O)(=O)N(CC(C)C)C[C@@H](O)[C@H](Cc2ccccc2)NC(=O)O[C@H]2C[C@@H](C)O[C@H]2[C@@H]2CCCO2)cc1 [4k, (2S,2’S,3S,5R)-5-methyloctahydro-[2,2’-bifuran]-3-yl((2S,3R)-3-hydroxy-4-((N-isobutyl-4-methoxyphenyl)sulfonamido)-1-phenylbutan-2-yl)carbamate]
Ki (HIV-1 protease; [1]): 310 pM | antiviral activity (in words) (HIVLAI): did not exhibit any appreciable antiviral activity

COc1ccc(S(=O)(=O)N(CC(C)C)C[C@@H](O)[C@H](Cc2ccccc2)NC(=O)O[C@H]2C[C@@H](C)O[C@H]2[C@H]2CCCO2)cc1 [4l, (2S,2’R,3S,5R)-5-methyloctahydro-[2,2’-bifuran]-3-yl((2S,3R)-3-hydroxy-4-((N-isobutyl-4-methoxyphenyl)sulfonamido)-1-phenylbutan-2-yl)carbamate]
Ki (HIV-1 protease; value printed in pM): 44 pM | antiviral activity (in words) (HIVLAI): did not exhibit any appreciable antiviral activity

CC(C)CN(C[C@@H](O)[C@H](Cc1ccccc1)NC(=O)O[C@H]1CO[C@H]2OCC[C@H]21)S(=O)(=O)c1ccc(N)cc1 [Darunavir, darunavir, reference compound]
EC50 (HIVLAI; Human immunodeficiency virus 1, MT2): 1600 pM
